Assays:
[1] = system: KB; assay: In vitro tumor cell growth inhibitory activity against human nasopharyngeal KB cell lines; assay type: functional, cell-based
[2] = system: L1210; assay: In vitro tumor cell growth inhibitory activity against mouse leukemia L1210 cell lines.; assay type: functional, cell-based

IC50 [1]	IC50 [2]	Structure (SMILES)
> 300000 nM	> 300000 nM	C#C[C@@]1(O)[C@@H](CO)O[C@@H](n2cc(C)c(=O)[nH]c2=O)[C@@H]1O
1400 nM	2500 nM	C#CC1(O)[C@@H](CO)O[C@@H](n2cc(F)c(=O)[nH]c2=O)[C@@H]1O (single isomer, unassigned)
460 nM	530 nM	C#C[C@]1(O)[C@@H](CO)OC(n2cc(F)c(N)nc2=O)[C@@H]1O (single isomer, unassigned)
> 300000 nM	> 300000 nM	C#CC1(O)[C@@H](CO)O[C@@H](n2cnc3c(O)nc(N)nc32)[C@@H]1O (single isomer, unassigned)

Source: ChEMBL document CHEMBL1129576, “Nucleosides and nucleotides. 158. 1-(3-C-ethynyl-beta-D-ribo-pentofuranosyl)-cytosine, 1-(3-C-ethynyl-beta-D-ribo-pentofuranosyl)uracil, and their nucleobase analogues as new potential multifunctional antitumor nucleosides with a broad spectrum of activity” (J Med Chem, 1996)
